{"source": "ChEMBL document CHEMBL5120795", "about": "“Small-Molecule Inhibitors of Tankyrases as Prospective Therapeutics for Cancer” (J Med Chem, 2022)", "key": {"[1]": {"molecular_target": "T1, Poly [ADP-ribose] polymerase tankyrase-2 (Homo sapiens, UniProt Q9H2K2)", "T1 sequence (Q9H2K2 whole entry)": "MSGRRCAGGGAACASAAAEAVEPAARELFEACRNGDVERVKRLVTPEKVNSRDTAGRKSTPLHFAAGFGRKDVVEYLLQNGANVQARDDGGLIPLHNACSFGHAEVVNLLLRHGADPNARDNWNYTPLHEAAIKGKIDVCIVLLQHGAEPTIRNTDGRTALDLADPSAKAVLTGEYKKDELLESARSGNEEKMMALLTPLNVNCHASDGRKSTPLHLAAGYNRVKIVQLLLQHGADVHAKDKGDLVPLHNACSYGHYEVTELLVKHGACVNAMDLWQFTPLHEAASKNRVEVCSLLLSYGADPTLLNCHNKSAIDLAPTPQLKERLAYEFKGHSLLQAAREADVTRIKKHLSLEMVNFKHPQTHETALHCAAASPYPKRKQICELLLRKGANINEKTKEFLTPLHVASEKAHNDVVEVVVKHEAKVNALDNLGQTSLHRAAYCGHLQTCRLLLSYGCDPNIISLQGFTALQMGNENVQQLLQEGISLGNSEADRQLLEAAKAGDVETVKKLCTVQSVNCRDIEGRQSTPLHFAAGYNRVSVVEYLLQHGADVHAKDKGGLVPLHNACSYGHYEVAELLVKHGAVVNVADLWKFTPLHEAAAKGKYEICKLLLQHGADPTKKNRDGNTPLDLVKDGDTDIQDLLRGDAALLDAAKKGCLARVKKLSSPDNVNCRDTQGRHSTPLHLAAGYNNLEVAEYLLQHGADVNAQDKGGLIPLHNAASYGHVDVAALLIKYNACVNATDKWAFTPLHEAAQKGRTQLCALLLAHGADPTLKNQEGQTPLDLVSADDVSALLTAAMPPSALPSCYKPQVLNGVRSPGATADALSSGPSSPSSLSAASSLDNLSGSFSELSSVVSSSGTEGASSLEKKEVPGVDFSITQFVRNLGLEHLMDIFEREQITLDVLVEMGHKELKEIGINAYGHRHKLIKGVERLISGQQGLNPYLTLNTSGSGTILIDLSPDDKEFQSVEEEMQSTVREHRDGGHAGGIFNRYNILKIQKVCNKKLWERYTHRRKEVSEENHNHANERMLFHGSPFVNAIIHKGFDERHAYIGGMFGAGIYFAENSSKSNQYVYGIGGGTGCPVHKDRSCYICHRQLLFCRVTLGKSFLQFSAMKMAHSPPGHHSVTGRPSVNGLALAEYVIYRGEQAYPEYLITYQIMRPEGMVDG", "experiment": "Binding affinity to ARC4 domain at TNKS2 (unknown origin) assessed as dissociation constant"}, "[2]": {"molecular_target": "T2, Poly [ADP-ribose] polymerase tankyrase-1 (Homo sapiens, UniProt O95271)", "T2 sequence (O95271 whole entry)": "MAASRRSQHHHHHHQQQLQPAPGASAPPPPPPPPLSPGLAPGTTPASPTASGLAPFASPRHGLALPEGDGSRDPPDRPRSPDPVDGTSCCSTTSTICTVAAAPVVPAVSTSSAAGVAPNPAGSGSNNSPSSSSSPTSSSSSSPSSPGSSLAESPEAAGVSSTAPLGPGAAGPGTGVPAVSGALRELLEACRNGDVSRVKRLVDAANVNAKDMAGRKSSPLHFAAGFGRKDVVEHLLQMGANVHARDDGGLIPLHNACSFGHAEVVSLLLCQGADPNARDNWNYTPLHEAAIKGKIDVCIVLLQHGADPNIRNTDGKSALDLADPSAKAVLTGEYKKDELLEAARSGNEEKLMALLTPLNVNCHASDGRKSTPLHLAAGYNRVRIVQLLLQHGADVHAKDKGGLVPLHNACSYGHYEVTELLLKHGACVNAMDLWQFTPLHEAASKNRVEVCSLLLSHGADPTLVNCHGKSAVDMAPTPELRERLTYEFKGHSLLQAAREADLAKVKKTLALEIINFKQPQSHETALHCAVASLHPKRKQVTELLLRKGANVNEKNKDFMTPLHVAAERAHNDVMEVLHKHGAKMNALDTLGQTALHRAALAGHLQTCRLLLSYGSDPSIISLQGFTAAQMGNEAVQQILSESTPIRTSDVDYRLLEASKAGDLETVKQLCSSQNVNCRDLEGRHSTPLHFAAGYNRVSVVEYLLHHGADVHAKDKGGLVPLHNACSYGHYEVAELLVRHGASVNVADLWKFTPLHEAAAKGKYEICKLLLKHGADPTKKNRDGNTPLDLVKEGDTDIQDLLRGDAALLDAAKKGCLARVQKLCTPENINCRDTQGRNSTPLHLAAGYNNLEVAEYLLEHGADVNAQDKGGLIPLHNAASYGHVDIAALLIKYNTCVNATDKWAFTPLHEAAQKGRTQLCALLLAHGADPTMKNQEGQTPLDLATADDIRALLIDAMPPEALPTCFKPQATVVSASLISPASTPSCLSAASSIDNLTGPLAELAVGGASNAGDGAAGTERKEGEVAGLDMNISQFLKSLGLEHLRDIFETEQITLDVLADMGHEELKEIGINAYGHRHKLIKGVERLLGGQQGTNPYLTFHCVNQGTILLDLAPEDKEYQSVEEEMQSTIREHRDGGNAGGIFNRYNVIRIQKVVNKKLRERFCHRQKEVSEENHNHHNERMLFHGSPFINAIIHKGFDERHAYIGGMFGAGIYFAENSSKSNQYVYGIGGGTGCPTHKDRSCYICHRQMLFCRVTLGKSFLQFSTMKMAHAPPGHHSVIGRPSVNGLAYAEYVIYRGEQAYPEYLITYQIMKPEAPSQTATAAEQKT", "experiment": "Inhibition of TNKS1 (unknown origin)"}, "[3]": {"molecular_target": "T1, Poly [ADP-ribose] polymerase tankyrase-2", "experiment": "Inhibition of TNKS2 (unknown origin)"}, "[4]": {"molecular_target": "T3, Poly [ADP-ribose] polymerase 1 (Homo sapiens, UniProt P09874)", "T3 sequence (P09874 whole entry)": "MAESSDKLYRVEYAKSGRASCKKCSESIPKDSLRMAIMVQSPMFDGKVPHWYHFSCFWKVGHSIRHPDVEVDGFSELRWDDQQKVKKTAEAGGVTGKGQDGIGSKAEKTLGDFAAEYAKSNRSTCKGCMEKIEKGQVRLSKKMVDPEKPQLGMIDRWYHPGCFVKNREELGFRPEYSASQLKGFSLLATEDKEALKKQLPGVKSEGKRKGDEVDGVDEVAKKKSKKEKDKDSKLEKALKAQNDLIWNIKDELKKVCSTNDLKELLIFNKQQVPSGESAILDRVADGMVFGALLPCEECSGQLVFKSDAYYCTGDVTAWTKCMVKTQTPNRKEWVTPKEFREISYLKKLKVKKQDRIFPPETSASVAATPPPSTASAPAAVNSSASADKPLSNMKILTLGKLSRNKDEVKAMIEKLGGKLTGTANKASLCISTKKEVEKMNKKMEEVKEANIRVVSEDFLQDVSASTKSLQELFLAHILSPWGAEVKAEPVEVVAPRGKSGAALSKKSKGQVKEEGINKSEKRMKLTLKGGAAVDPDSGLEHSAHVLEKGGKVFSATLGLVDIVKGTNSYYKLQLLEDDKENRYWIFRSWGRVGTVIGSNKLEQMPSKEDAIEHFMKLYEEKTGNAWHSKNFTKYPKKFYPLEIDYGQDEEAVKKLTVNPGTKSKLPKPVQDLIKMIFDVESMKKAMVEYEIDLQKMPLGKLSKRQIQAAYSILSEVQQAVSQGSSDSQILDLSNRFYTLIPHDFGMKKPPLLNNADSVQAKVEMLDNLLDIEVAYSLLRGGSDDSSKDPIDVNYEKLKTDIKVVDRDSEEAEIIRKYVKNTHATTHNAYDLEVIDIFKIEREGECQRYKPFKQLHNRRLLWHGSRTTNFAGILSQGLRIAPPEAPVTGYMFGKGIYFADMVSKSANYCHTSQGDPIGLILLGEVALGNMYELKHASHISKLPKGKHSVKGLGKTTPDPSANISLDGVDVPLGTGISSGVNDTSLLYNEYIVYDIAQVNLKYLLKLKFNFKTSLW", "experiment": "Inhibition of PARP1 (unknown origin)"}, "[5]": {"experiment": "Disruption of ARC5 domain of TNKS1 (unknown origin)/USP25 (unknown origin) protein interaction assessed as inhibition constant", "set-up": "species or system Homo sapiens"}, "SW480 [6]": {"system": "SW480", "experiment": "Antitumor activity against human SW480 cells xenografted in mouse assessed as reduction in tumor size at 150 mg/kg, IP relative to control", "assay_type": "functional", "set-up": "scale not given: the % may be the effect or the level left"}, "SW480 [7]": {"system": "SW480", "experiment": "Antitumor activity against human SW480 cells xenografted in mouse assessed as reduction in tumor size at 300 mg/kg, IP relative to control", "assay_type": "functional", "set-up": "scale not given: the % may be the effect or the level left"}, "[8]": {"molecular_target": "T4, Poly [ADP-ribose] polymerase tankyrase-1 (Homo sapiens) (UniProt O95271)", "T4 sequence (whole entry)": "T2 sequence (O95271 whole entry)", "experiment": "Inhibition of TNKS1 (unknown origin) at 1 uM relative to control"}, "[9]": {"molecular_target": "T5, Poly [ADP-ribose] polymerase tankyrase-2 (Homo sapiens) (UniProt Q9H2K2)", "T5 sequence (whole entry)": "T1 sequence (Q9H2K2 whole entry)", "experiment": "Inhibition of TNKS2 (unknown origin) at 1 uM relative to control"}, "[10]": {"molecular_target": "T3, Poly [ADP-ribose] polymerase 1", "experiment": "Inhibition of PARP1 (unknown origin) at 1 uM relative to control"}, "[11]": {"molecular_target": "T6, Poly [ADP-ribose] polymerase 2 (Homo sapiens, UniProt Q9UGN5)", "T6 sequence (Q9UGN5 whole entry)": "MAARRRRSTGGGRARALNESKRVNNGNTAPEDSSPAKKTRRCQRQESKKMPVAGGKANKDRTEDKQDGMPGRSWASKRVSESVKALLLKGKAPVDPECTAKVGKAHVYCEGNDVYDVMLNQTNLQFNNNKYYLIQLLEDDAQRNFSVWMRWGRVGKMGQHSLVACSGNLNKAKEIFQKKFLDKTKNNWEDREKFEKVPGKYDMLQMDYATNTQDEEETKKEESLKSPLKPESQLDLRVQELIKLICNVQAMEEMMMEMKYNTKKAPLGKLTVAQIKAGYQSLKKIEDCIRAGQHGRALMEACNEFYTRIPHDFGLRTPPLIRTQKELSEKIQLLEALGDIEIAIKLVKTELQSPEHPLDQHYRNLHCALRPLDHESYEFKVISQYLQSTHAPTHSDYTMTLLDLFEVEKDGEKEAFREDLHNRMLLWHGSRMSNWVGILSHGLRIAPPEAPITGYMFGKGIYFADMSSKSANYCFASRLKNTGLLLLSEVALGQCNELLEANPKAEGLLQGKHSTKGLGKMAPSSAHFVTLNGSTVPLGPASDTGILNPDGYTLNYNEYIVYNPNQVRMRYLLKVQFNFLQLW", "experiment": "Inhibition of PARP2 (unknown origin) at 1 uM relative to control"}, "[12]": {"experiment": "Oral bioavailability in mouse relative to control", "assay_type": "ADME, organism-based", "conditions": "in vivo"}, "[13]": {"experiment": "Stability in mouse liver microsomes assessed as compound remaining measured after 30 mins relative to control", "assay_type": "ADME, Microsome", "conditions": "read-out: Stability"}, "physchem": {"experiment": "physchem", "conditions": "aqueous, pH 7.4"}, "[14]": {"experiment": "Toxicity in mouse xenografted with COLO 320DM cells assessed as reduction in body weight at 60 mg/kg, po daily relative to control", "assay_type": "organism-based", "set-up": "scale not given: the % may be the effect or the level left", "conditions": "in vivo"}, "[15]": {"experiment": "Toxicity in mouse xenografted with COLO 320DM cells assessed as reduction in body weight at 30 mg/kg, ip daily relative to control", "assay_type": "organism-based", "set-up": "scale not given: the % may be the effect or the level left", "conditions": "in vivo"}, "[16]": {"experiment": "Antitumor activity against human MNNG/HOS cells xenografted in mouse assessed as decrease in tumor growth rate at 5 mg/kg, IT administered every other day for 12 days relative to control", "assay_type": "functional, HOS-TE85", "set-up": "scale not given: the % may be the effect or the level left", "conditions": "time 12 day"}, "[17]": {"molecular_target": "T6, Poly [ADP-ribose] polymerase 2", "experiment": "Inhibition of PAPR2 (unknown origin)"}}, "data": [{"smiles": "CC(=O)N[C@@H](CCCNC(=N)N)C(=O)N[C@@H](CCC(=O)O)C(=O)N[C@H]1CCn2cc(nn2)CCCc2cn(nn2)CC[C@@H](C(=O)N[C@@H](CCC(=O)O)C(N)=O)NC(=O)CNC(=O)[C@H](CC(=O)O)NC(=O)CNC1=O", "values": [{"measurement": "Kd", "setting": "[1]", "result": 600, "unit": "nM"}]}, {"smiles": "O=C(Nc1cccc2c(=O)[nH]ccc12)[C@H]1CCCNC1", "values": [{"measurement": "IC50", "setting": "[2]", "result": 9, "unit": "nM"}, {"measurement": "IC50", "setting": "[3]", "result": 3, "unit": "nM"}, {"measurement": "IC50", "setting": "[4]", "result": "> 10", "unit": "µM"}]}, {"smiles": "COc1ccc(-n2c(SCCCN3C(=O)c4cccc5cccc(c45)C3=O)nnc2-c2ccncc2)cc1", "values": [{"measurement": "IC50", "setting": "[3]", "result": 15, "unit": "nM"}]}, {"smiles": "CC(=O)N[C@@H](CCCNC(=N)N)C(=O)N[C@@H](CCC(=O)O)C(=O)N[C@H]1CCn2cc(nn2)-c2cc(C(=O)O)cc(c2)-c2cn(nn2)CC[C@@H](C(=O)N[C@@H](CCC(=O)O)C(N)=O)NC(=O)CNC(=O)[C@H](CC(=O)O)NC(=O)CNC1=O", "values": [{"measurement": "Kd", "setting": "[1]", "result": 440, "unit": "nM"}]}, {"smiles": "COc1ccc(C2(CNC(=O)c3ccc(NC(=O)c4ccco4)cc3)CCOCC2)cc1", "values": [{"measurement": "IC50", "setting": "[3]", "result": 1900, "unit": "nM"}, {"measurement": "IC50", "setting": "[4]", "result": 1.8, "unit": "µM"}]}, {"smiles": "CCc1ccc(OCC(=O)Nc2sc(C)c(C)c2C(N)=O)c(F)c1", "values": [{"measurement": "Ki", "setting": "[5]", "result": 20.5, "unit": "µM"}]}, {"smiles": "COc1ccc(-n2c(SCc3nc(-c4ccc(C)cc4)no3)nnc2-c2ccncc2)cc1", "values": [{"measurement": "Activity", "setting": "SW480 [6]", "result": 33, "unit": "%"}, {"measurement": "Activity", "setting": "SW480 [7]", "result": 35, "unit": "%"}]}, {"smiles": "COc1cc2ncnc(N3CCC(CN4Cc5ccccc5N(c5ccc(F)c(C#N)c5)C4=O)CC3)c2cc1OC", "values": [{"measurement": "inhibition", "setting": "[8]", "result": 100, "unit": "%"}, {"measurement": "inhibition", "setting": "[9]", "result": 100, "unit": "%"}, {"measurement": "inhibition", "setting": "[10]", "result": 0, "unit": "%"}, {"measurement": "inhibition", "setting": "[11]", "result": 0, "unit": "%"}]}, {"smiles": "C[C@@H]1CN(c2cc(F)c3c(c2)N(C)C(=O)C32CCN(c3nc4c(c(=O)[nH]3)CCCN4C)CC2)C[C@H](C)O1", "values": [{"measurement": "bioavailability", "setting": "[12]", "result": 100, "unit": "%"}]}, {"smiles": "COc1ccccc1N1CCN(c2nc3c(c(=O)[nH]2)CCCC3)CC1", "values": [{"measurement": "IC50", "setting": "[4]", "result": "> 100", "unit": "µM"}, {"measurement": "remaining at 0.5 h", "setting": "[13]", "result": 0, "unit": "%"}, {"measurement": "solubility", "setting": "physchem", "result": 10, "unit": "µg/mL"}]}, {"smiles": "CS(=O)(=O)c1ccc(-c2nnc(/C=C/c3nnc(-c4ccc(C#N)cc4)o3)n2-c2ccccc2Cl)nc1", "values": [{"measurement": "Activity", "setting": "[14]", "result": "> 15", "unit": "%"}, {"measurement": "Activity", "setting": "[15]", "result": "> 15", "unit": "%"}]}, {"smiles": "O=C(Nc1cccc2cccnc12)c1ccc(N2C(=O)[C@@H]3[C@H](C2=O)[C@@H]2C=C[C@H]3C2)cc1", "values": [{"measurement": "Activity", "setting": "[16]", "result": 73, "unit": "%"}]}, {"smiles": "Cc1cc(NCCc2ccc(O)cc2)c2nncn2n1", "values": [{"measurement": "IC50", "setting": "[4]", "result": "> 10", "unit": "µM"}, {"measurement": "IC50", "setting": "[17]", "result": "> 10", "unit": "µM"}]}]}
